Laboratory results: ChEMBL document CHEMBL3745675, “Design and optimization of selective azaindole amide M1 positive allosteric modulators” (Bioorg Med Chem Lett, 2016)

Columns and labels:
Plasma [1] = assay: Fraction unbound in C57BL/6j mouse plasma at 10 mg/kg, sc after 1 hr; type: ADME, organism-based; conditions: in vivo
[2] = Permeability in RRCK cells; type: ADME, cell-based, Canis lupus familiaris, MDCKII-LE; conditions: dog, MDCK; read-out: permeability
[3] = Ratio of unbound AUC in brain to plasma in C57BL/6j mouse; type: ADME, organism-based; conditions: read-out: Ratio AUC
[4] = Ratio of unbound AUC in brain to plasma in Wistar Hann rat; type: ADME, organism-based; conditions: read-out: Ratio AUC
[5] = Oral bioavailability in Wistar Hann rat; type: ADME, organism-based; conditions: in vivo
Plasma [6] = assay: Fraction unbound in C57BL/6j mouse plasma; type: ADME, cell-free
Plasma [7] = assay: Fraction unbound in Wistar Hann rat plasma; type: ADME, cell-free
Plasma [8] = assay: Fraction unbound in C57BL/6j mouse plasma at […], sc after 1 hr; type: ADME, organism-based; conditions: in vivo
[9] = Ratio drug level in brain to plasma in C57BL/6j mouse at […], sc after 1 hr; type: ADME, organism-based; conditions: read-out: BPR
[10] = Ratio of unbound AUC in brain to plasma in C57BL/6j mouse at […], sc after 1 hr; type: ADME, organism-based; conditions: read-out: Ratio AUC
[11] = Ratio drug level in brain to plasma in C57BL/6j mouse at 10 mg/kg, sc after 1 hr; type: ADME, organism-based; conditions: read-out: BPR
[12] = Ratio of unbound AUC in brain to plasma in C57BL/6j mouse at 10 mg/kg, sc after 1 hr; type: ADME, organism-based; conditions: read-out: Ratio AUC
Plasma [13] = assay: Fraction unbound in C57BL/6j mouse plasma at 10 mg/kg, sc after 0.5 hrs; type: ADME, organism-based; conditions: in vivo
[14] = Ratio drug level in brain to plasma in C57BL/6j mouse at 10 mg/kg, sc after 0.5 hrs; type: ADME, organism-based; conditions: read-out: BPR
[15] = Ratio of unbound AUC in brain to plasma in C57BL/6j mouse at 10 mg/kg, sc after 0.5 hrs; type: ADME, organism-based; conditions: read-out: Ratio AUC
Plasma [16] = assay: Fraction unbound in C57BL/6j mouse plasma at 10 mg/kg, sc after 2 hrs; type: ADME, organism-based; conditions: in vivo
[17] = Ratio drug level in brain to plasma in C57BL/6j mouse at 10 mg/kg, sc after 2 hrs; type: ADME, organism-based; conditions: read-out: BPR
[18] = Ratio of unbound AUC in brain to plasma in C57BL/6j mouse at 10 mg/kg, sc after 2 hrs; type: ADME, organism-based; conditions: read-out: Ratio AUC
Plasma [19] = assay: Fraction unbound in C57BL/6j mouse plasma at 10 mg/kg, sc after 4 hrs; type: ADME, organism-based; conditions: in vivo
[20] = Ratio drug level in brain to plasma in C57BL/6j mouse at 10 mg/kg, sc after 4 hrs; type: ADME, organism-based; conditions: read-out: BPR
[21] = Ratio of unbound AUC in brain to plasma in C57BL/6j mouse at 10 mg/kg, sc after 4 hrs; type: ADME, organism-based; conditions: read-out: Ratio AUC
[22] = AUC (0 to 24 hrs) in Wistar Hann rat at 0.5 mg/kg, iv; type: ADME, organism-based; design: dose 0.5 mg/kg, time < 24 hr, route intravenous; conditions: in vivo
[23] = Intial plasma concentration in Wistar Hann rat at 0.5 mg/kg, iv; type: ADME, organism-based
[24] = Volume of distribution at steady state in Wistar Hann rat at 0.5 mg/kg, iv; type: ADME, organism-based; conditions: in vivo, read-out: Vdss
[25] = Cmax in Wistar Hann rat at 2 mg/kg, po; type: ADME, organism-based; design: dose 2 mg/kg, route oral; conditions: in vivo
[26] = Tmax in Wistar Hann rat at 2 mg/kg, po; type: ADME, organism-based; conditions: in vivo
[27] = AUC in Wistar Hann rat at 2 mg/kg, po; type: ADME, organism-based; conditions: in vivo
[28] = Oral bioavailability in Wistar Hann rat at 2 mg/kg; type: ADME, organism-based; conditions: in vivo
[29] = Drug concentration in Wistar Hann rat brain at 5 mg/kg, sc after 1 hr; type: ADME, organism-based; conditions: read-out: Drug uptake
[30] = Drug concentration in Wistar Hann rat brain at 5 mg/kg, sc after 2 hrs; type: ADME, organism-based; conditions: read-out: Drug uptake
[31] = Drug concentration in Wistar Hann rat brain at 5 mg/kg, sc after 4 hrs; type: ADME, organism-based; conditions: read-out: Drug uptake
[32] = Drug concentration in Wistar Hann rat brain at 5 mg/kg, sc after 6 hrs; type: ADME, organism-based; conditions: read-out: Drug uptake
[33] = Drug concentration in Wistar Hann rat plasma at 5 mg/kg, sc after 1 hr; type: ADME, organism-based
[34] = Drug concentration in Wistar Hann rat plasma at 5 mg/kg, sc after 2 hrs; type: ADME, organism-based
[35] = Drug concentration in Wistar Hann rat plasma at 5 mg/kg, sc after 4 hrs; type: ADME, organism-based
[36] = Drug concentration in Wistar Hann rat plasma at 5 mg/kg, sc after 6 hrs; type: ADME, organism-based

## Cn1ccc(-c2ccc(Cn3cc(C(=O)N[C@H]4CCOC[C@@H]4O)c4ncccc43)cc2)n1
Plasma [1]
  Cp(f): 560 nM
[2]
  Papp: 31.5 ×10⁻⁶ cm/s
[3]
  Kp uu: 0.2
[4]
  Kp uu: 0.15
[5]
  bioavailability: 69%
Plasma [6]
  Cp(f): 0.027 nM
Plasma [7]
  Cp(f): 0.092 nM
Plasma [8]
  Cp(f): 302.2 nM
[9]
  Kp at 1 h: 0.04
[10]
  Kp uu at 1 h: 0.1
[11]
  Kp at 1 h: 0.07
[12]
  Kp uu at 1 h: 0.18
Plasma [13]
  Cp(f): 295 nM
[14]
  Kp at 0.5 h: 0.14
[15]
  Kp uu at 0.5 h: 0.34
Plasma [16]
  Cp(f): 379 nM
[17]
  Kp at 2 h: 0.06
[18]
  Kp uu at 2 h: 0.16
Plasma [19]
  Cp(f): 218 nM
[20]
  Kp at 4 h: 0.1
[21]
  Kp uu at 4 h: 0.24
[22]
  AUC(0-t) at 24 h: 1660 ng·h/mL
[23]
  C0: 535 ng/mL
[24]
  Vd: 1.49 L/kg
[25]
  Cmax: 600 ng/mL
[26]
  Tmax: 1.5 h
[27]
  AUC: 4510 ng·h/mL
[28]
  bioavailability: 67.9%
[29]
  concentration at 1 h: 1050 nM
[30]
  concentration at 2 h: 944 nM
[31]
  concentration at 4 h: 681 nM
[32]
  concentration at 6 h: 409 nM
[33]
  concentration at 1 h: 5030 nM
[34]
  concentration at 2 h: 5460 nM
[35]
  concentration at 4 h: 3190 nM
[36]
  concentration at 6 h: 2150 nM
